Holding throughout (format): cell-based
For series [1], the system named is NHEJ repair activity in 293T cells. The experiment in a line: NHEJ repair activity by CRISPR/Cas9-induced HPRT mutation with siRNA co-transfection, 6-TG selection and MTT cell viability. The note with it: CRISPR/Cas9, 3 μg siRNA co-transfected, versus negative control siRNA. The method, then: The inhibiting effect of DNA-PKcs siRNA on NHEJ was determined by using a CRISPR/Cas9 technology, and the specific steps comprise:
(1) a Cas9/gRNA plasmid was constructed for HPRT gene, and the specific steps are as described in the embodiment 2.
(2) the Cas9/gRNA plasmid and DNA-PKcs siRNA were co-transfected into 293T cells. The specific steps comprise: 293T cells were inoculated into a culture dish of 6 cm, and 3 μg Cas9/gRNA plasmid and 3 μg DNA-PKcs siRNA were co-transfected into the 293T cells by using Lipofectamine 3000 when cell density reached 70%, and a negative control siRNA was transfected for the negative control group. The gene sequence of DNA-PKcs siRNA was […] (SEQ ID NO:5).
(3) the cells were treated with 6-TG. The specific steps comprise: the cells were inoculated into a 96-well plate after the transfection is performed for 24 h, then the culture medium was replaced with a DMEM culture medium containing 30 μmol/L 6-TG after cell attachment, and the cells were continually cultured for 72 h.
(4) cell viability was determined by a MTT method. The specific steps comprise: a MTT solution was added after the treatment was completed, 2 h later, the formed blue formazan particles were dissolved with DMSO, and then the light absorption value of each well was determined at OD570 nm via a microplate reader. […]

The test system is the same in series [2]. In words: NHEJ repair activity by TALEN-induced HPRT mutation, 6-TG selection and MTT cell viability. The conditions noted are these: for inhibition rate of NHEJ repair activity: then 30 μmol/L 6-TG 72 h. The protocol: The inhibiting effects of different concentrations of NU7441 on NHEJ are determined by using the TALEN technology, and the specific steps are as follows:
(1) a TALEN plasmid for HPRT gene was constructed. The specific steps comprise: a left-arm recognition sequence ATGACCTTGATTTA (SEQ ID NO:1) and a right-arm recognition sequence CCAAATCCTCAGCA (SEQ ID NO:2) of the target HPRT gene were designed according to the TALEN design principle, and the two recognition sequences were inserted into a corresponding backbone carrier according to the method indicated on the TALEN construction kit. Competent E. coli cells were transformed with the carrier, uniformly spread on a kanamycin-resistant (20 μg/ml) plate and cultured in an incubator at 37° C. for 12-16 h, then 3-5 clones were selected and inoculated in 5 ml LB culture solution (containing 20 μg/ml kanamycin), and cultured in a shaker at 250 rpm under 37° C. for 16 h, plasmids were extracted and sequenced, and the obtained sequences were compared with the designed recognition sequences, ensuring the left-arm and right-arm TALEN plasmids with correct sequences were obtained.
(2) the left-arm and right-arm TALEN plasmids were transfected into 293T cells. The specific steps comprise: 293T cells were inoculated into a culture dish of 6 cm, and 4 μg left-arm plasmids and 4 μg right-arm plasmids were transfected into the 293T cells by using Lipofectamine 3000 when cell density reached 70%.
(3) the 293T cells were treated with different concentrations of the inhibitor NU7441. […]
(§1) (5) cell viability was determined by a MTT method. The specific steps comprise: a MTT solution was added after the treatment was completed, 2 h later, the formed blue formazan particles were dissolved with DMSO, and then the light absorption value of each well was determined at OD570 nm via a microplate reader. […]

For series [3] the test system is unchanged. In words: NHEJ repair activity by CRISPR/Cas9-induced HPRT mutation, 6-TG selection and MTT cell viability (NU7441 treatment time). The protocol: The time dependence of the inhibiting effect of 2.0 μmol/L NU7441 on NHEJ was determined by using the CRISPR/Cas9 technology, specific steps were as follows:
(1) a Cas9/gRNA plasmid was constructed for HPRT gene. The specific steps comprise: a target site primer of HPRT was designed according to a gRNA design principle, wherein the forward primer is […] (SEQ ID NO:3), and the reverse primer is […] (SEQ ID NO:4). The primers were annealed to form a dimer, and the gRNA-sequence primer dimer was inserted into a Cas9/gRNA plasmid according to the method indicated on the CRISPR/Cas9 construction kit. Competent E. coli cells were transformed with the plasmid, spread on an ampicillin-resistant plate. 3-5 clones were selected and cultured in a shaker, plasmids were extracted and sequenced, and the obtained sequences were compared with the designed recognition sequences, ensuring the Cas9/gRNA plasmids with correct sequences were obtained.
(2) the Cas9/gRNA plasmids were transfected into 293T cells. […]
as §1

In the case of “DNA-PKcs siRNA: siRNA of the NHEJ repair molecule DNA-PKcs, sequence UUCUCCGAACGUGUCACGUTT (SEQ ID NO:5), synthesized by GenePharma (chemistry not given here)”, the “repair activity of NHEJ” value in series [1] is “inhibited significantly”.

In the case of `O=c1cc(N2CCOCC2)oc2c(-c3cccc4c3sc3ccccc34)cccc12` [NU7441], the “inhibition rate of NHEJ repair activity” value is recorded as “about 50%” in series [2] (0.5 μmol/L for 4 h); “about 50%” in series [2] (1.0 μmol/L for 4 h); “about 50%” in series [3] (CRISPR/Cas9, 2.0 μmol/L for 1 h, then 30 μmol/L 6-TG 72 h). Besides, the “inhibiting effect on NHEJ repair activity” value in series [2] (concentration increased to 2.0 μmol/L, 4 h (compared with 0.5, 1.0 μmol/L)) is given as “the inhibiting effect was reduced”. The “inhibiting effect on NHEJ activity” value in series [3] (CRISPR/Cas9, 2.0 μmol/L, treatment longer than 1 h (2 and 4 h)) was “reduced over time”.

The values above are taken from patent US9863933B2, “Method for determining the repair activity of non-homologous end joining” (Soochow University, priority 2015, dated 2018).
